# Like-named read-outs stand apart in the source and are kept apart here. Starred links: 1 amine or outer side, 2 acyl side, 3 side chain; linkers in the order of their positions; H or OH if unused. Positions of bridges follow the written chain, without caps; N, C: chain ends. Non-standard residues stand in square brackets, D forms with d. Residues, ends and D or L forms follow the SMILES beside them. *: point of attachment. X6 = CS(=O)(=O)c1ccc(-c2ccc(C[C@H](N[*:1])C(=O)[*:2])cc2)cc1; Phe(3-OCH2COOH) = N[C@@H](Cc1cccc(OCC(=O)O)c1)C(=O)O; Trp(1-Ph) = N[C@@H](Cc1cn(-c2ccccc2)c2ccccc12)C(=O)O; Piperidine(4-CH2CH2CONH2) = NC(=O)CCC1CCN(*)CC1; Phe(4-COOH) = N[C@@H](Cc1ccc(C(=O)O)cc1)C(=O)O; Trp(6-aza) = N[C@@H](Cc1c[nH]c2cnccc12)C(=O)O; Piperazinyl(4-CH2COOH) = O=C(O)CN1CCN(*)CC1; Piperidinyl(4-CH2COOH) = O=C(O)CC1CCN(*)CC1; Gly(decyl) = CCCCCCCCCC[C@H](N)C(=O)O; NMeF = CN[C@@H](Cc1ccccc1)C(=O)O; NMeE = CN[C@@H](CCC(=O)O)C(=O)O; Cha = N[C@@H](CC1CCCCC1)C(=O)O; NMeA = CN[C@@H](C)C(=O)O; X9 = NC(=O)CC1CCN(*)CC1; NPrGly = CCCNCC(=O)O; NEtG = CCNCC(=O)O; Sar = CNCC(=O)O
# Tests used:
# [1] = target: T1, GDF-11 (Homo sapiens, UniProt O95390); assay: HepG2 reporter gene assay, Evaluation Procedure (2): 2-concentrations assay, GDF-11 inhibition; type: cell-based
# T1 construct: purchased R&D systems 1958-GD-G8/CF
# T1 sequence (O95390 299-407): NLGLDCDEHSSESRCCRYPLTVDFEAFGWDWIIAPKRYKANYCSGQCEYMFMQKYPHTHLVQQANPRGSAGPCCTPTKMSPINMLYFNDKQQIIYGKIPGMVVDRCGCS
# Summary of the method: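 HepG2 cells carrying the transfected pGL3(CAGA)12-luc reporter, a pGL3 vector with luciferase placed downstream of 12 CAGA repeats, were stimulated with GDF-11 at a final 10 ng/mL together with test peptide. Blank wells received no GDF-11 and no peptide. Plates were incubated 20 to 24 hours at 37°C with 5% CO2. Luminescence from One-Glo substrate was read to calculate percent inhibition.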
# [2] = target: T2, Myostatin (Homo sapiens, UniProt O14793); assay: HepG2 reporter gene assay, Evaluation Procedure (2): 2-concentrations assay, myostatin inhibition; type: cell-based
# T2 construct: active myostatin (also called mature myostatin) is a homodimer consisting of two C-terminal growth factor domains; purchased R&D systems 788-G8/CF
# T2 sequence (O14793 267-375): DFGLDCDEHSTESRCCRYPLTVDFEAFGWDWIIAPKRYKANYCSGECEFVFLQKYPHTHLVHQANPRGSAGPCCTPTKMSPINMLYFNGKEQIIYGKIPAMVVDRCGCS
# Summary of the method: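 Myostatin inhibition was measured in a luciferase reporter assay using HepG2 cells transfected with a pGL3 vector containing 12 CAGA repeats upstream of luciferase. After 20 to 24 hours with 10 ng/mL myostatin, cells received One-Glo:PBS (1:1) at 100 µL/well, were shaken for 5 min, and 20 µL/well was moved to 384-well plates and read on an Envision 2104.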
# [3] = HepG2, first GDF-11 column of Table 7-3/7-4, GDF-11 10 ng/mL, peptide at the lower of the 2 concentrations, read-out: inhibition rate (GDF-11 inhibition assay)
# [4] = HepG2, second GDF-11 column of Table 7-3/7-4, GDF-11 10 ng/mL, peptide at the higher of the 2 concentrations, read-out: inhibition rate (GDF-11 inhibition assay)
# [5] = Table 7-3/7-4, myostatin 10 ng/mL, peptide at the higher of the 2 concentrations, HepG2, read-out: inhibition rate (myostatin inhibition assay)
# [6] = Table 7-3/7-4, myostatin 10 ng/mL, peptide at the lower of the 2 concentrations, HepG2, read-out: inhibition rate (myostatin inhibition assay)
# [7] = HepG2, read-out: inhibition rate (GDF-11 inhibition assay), Table 7-3/7-4, GDF-11 10 ng/mL, peptide at the higher of the 2 concentrations
# [8] = HepG2, read-out: inhibition rate (GDF-11 inhibition assay), Table 7-3/7-4, GDF-11 10 ng/mL, peptide at the lower of the 2 concentrations
# [9] = HepG2, read-out: inhibition rate (myostatin inhibition assay)
SMILES,"inhibition [1, 3]","inhibition [1, 4]","inhibition at 0.1 µM [2, 5]","inhibition at 0.03 µM [2, 6]","inhibition [1, 7]","inhibition [1, 8]","inhibition at 0.03 µM [2, 9]","inhibition at 0.1 µM [2, 9]"
CCCCCCCCCC[C@@H]1NC(=O)[C@H](CC2CCCCC2)NC(=O)[C@H](CCCNC(=N)N)NC(=O)[C@H](Cc2ccc(C(=O)O)cc2)NC(=O)[C@H](Cc2cccc(OCC(=O)O)c2)NC(=O)[C@H](C)N(C)C(=O)[C@H]([C@@H](C)CC)NC(=O)[C@H](Cc2ccccc2)N(C)C(=O)[C@H](Cc2ccc(O)cc2)NC(=O)[C@H](Cc2cn(-c3ccccc3)c3ccccc23)NC(=O)[C@H](C)NC(=O)[C@H](C)NC(=O)CSC[C@H](C(=O)N2CCN(CC(=O)O)CC2)NC(=O)[C@H](Cc2ccccc2)N(C)C(=O)[C@H](CCC(=O)O)N(C)C1=O [Myostatin_99_v333] ({CH2CO}-AA[Trp(1-Ph)]Y[NMeF]I[NMeA][Phe(3-OCH2COOH)][Phe(4-COOH)]R[Cha][Gly(decyl)][NMeE][NMeF][dC]-{Piperazinyl(4-CH2COOH)}; thioether N-15),0%,34%,100%,100%,–,–,–,–
CCCCCCCCCC[C@@H]1NC(=O)[C@H](Cc2ccccc2)N(C)C(=O)[C@H](CCCNC(=N)N)NC(=O)[C@H](Cc2ccc(C(=O)O)cc2)NC(=O)[C@H](Cc2cccc(OCC(=O)O)c2)NC(=O)CN(CCC)C(=O)[C@H]([C@@H](C)CC)NC(=O)[C@H](Cc2ccccc2)N(C)C(=O)[C@H](Cc2ccc(O)cc2)NC(=O)[C@H](Cc2c[nH]c3ccccc23)NC(=O)[C@H](C)NC(=O)[C@H](C)NC(=O)CSC[C@H](C(=O)N2CCC(CC(=O)O)CC2)NC(=O)[C@H](Cc2ccccc2)N(C)C(=O)[C@H](CCC(=O)O)N(C)C1=O [Myostatin_99_v334] ({CH2CO}-AAWY[NMeF]I[NPrGly][Phe(3-OCH2COOH)][Phe(4-COOH)]R[NMeF][Gly(decyl)][NMeE][NMeF][dC]-{Piperidinyl(4-CH2COOH)}; thioether N-15),0%,0%,99%,90%,–,–,–,–
CCCCCCCCCC[C@@H]1NC(=O)[C@H](Cc2ccccc2)N(C)C(=O)[C@H](CCCNC(=N)N)NC(=O)[C@H](Cc2ccc(C(=O)O)cc2)NC(=O)[C@H](Cc2cccc(OCC(=O)O)c2)NC(=O)[C@H]2CCCN2C(=O)[C@H]([C@@H](C)CC)NC(=O)[C@H](Cc2ccccc2)N(C)C(=O)[C@H](Cc2ccc(O)cc2)NC(=O)[C@H](Cc2ccc(-c3ccc(S(C)(=O)=O)cc3)cc2)NC(=O)[C@H](C)NC(=O)[C@H](C)NC(=O)CSC[C@H](C(=O)N2CCC(CC(=O)O)CC2)NC(=O)[C@H](Cc2ccccc2)N(C)C(=O)[C@H](CCC(=O)O)N(C)C1=O [Myostatin_99_v342] ({CH2CO}-AA[X6]Y[NMeF]I[dP][Phe(3-OCH2COOH)][Phe(4-COOH)]R[NMeF][Gly(decyl)][NMeE][NMeF][dC]-{Piperidinyl(4-CH2COOH)}; thioether N-15),–,–,–,–,47%,0%,100%,100%
CCCCCCCCCC[C@@H]1NC(=O)[C@H](Cc2ccccc2)N(C)C(=O)[C@H](CCCNC(=N)N)NC(=O)[C@H](Cc2ccc(C(=O)O)cc2)NC(=O)[C@H](Cc2cccc(OCC(=O)O)c2)NC(=O)[C@H]2CCCN2C(=O)[C@H]([C@@H](C)CC)NC(=O)[C@H](Cc2ccccc2)N(C)C(=O)[C@H](Cc2ccc(O)cc2)NC(=O)[C@H](Cc2ccc(-c3ccc(S(C)(=O)=O)cc3)cc2)NC(=O)[C@H](C)NC(=O)[C@H](C)NC(=O)CSC[C@H](C(=O)N2CCC(CCC(N)=O)CC2)NC(=O)[C@H](Cc2ccccc2)N(C)C(=O)[C@H](CCC(=O)O)N(C)C1=O [Myostatin_99_v345] ({CH2CO}-AA[X6]Y[NMeF]I[dP][Phe(3-OCH2COOH)][Phe(4-COOH)]R[NMeF][Gly(decyl)][NMeE][NMeF][dC]-{Piperidine(4-CH2CH2CONH2)}; thioether N-15),–,–,–,–,70%,7%,100%,100%

# Now from value to compound, other results behind:
"inhibition [1, 3]","inhibition [1, 4]","inhibition at 0.1 µM [2, 5]","inhibition at 0.03 µM [2, 6]",SMILES,"inhibition [1, 7]","inhibition [1, 8]","inhibition at 0.03 µM [2, 9]","inhibition at 0.1 µM [2, 9]"
0%,0%,100%,99%,CCCCCCCCCC[C@@H]1NC(=O)[C@H](Cc2ccccc2)N(C)C(=O)[C@H](CCCNC(=N)N)NC(=O)[C@H](Cc2ccc(C(=O)O)cc2)NC(=O)[C@H](Cc2cccc(OCC(=O)O)c2)NC(=O)CN(CC)C(=O)[C@H]([C@@H](C)CC)NC(=O)[C@H](Cc2ccccc2)N(C)C(=O)[C@H](Cc2ccc(O)cc2)NC(=O)[C@H](Cc2c[nH]c3ccccc23)NC(=O)[C@H](C)NC(=O)[C@H](C)NC(=O)CSC[C@H](C(=O)N2CCC(CC(=O)O)CC2)NC(=O)[C@H](Cc2ccccc2)N(C)C(=O)[C@H](CCC(=O)O)N(C)C1=O [Myostatin_99_v336] ({CH2CO}-AAWY[NMeF]I[NEtG][Phe(3-OCH2COOH)][Phe(4-COOH)]R[NMeF][Gly(decyl)][NMeE][NMeF][dC]-{Piperidinyl(4-CH2COOH)}; thioether N-15),–,–,–,–
0%,0%,96%,82%,CCCCCCCCCC[C@@H]1NC(=O)[C@H](Cc2ccccc2)N(C)C(=O)[C@H](CCCNC(=N)N)NC(=O)[C@H](Cc2ccc(C(=O)O)cc2)NC(=O)[C@H](Cc2cccc(OCC(=O)O)c2)NC(=O)CN(CCC)C(=O)[C@H]([C@@H](C)CC)NC(=O)[C@H](Cc2ccccc2)N(C)C(=O)[C@H](Cc2ccc(O)cc2)NC(=O)[C@H](Cc2c[nH]c3cnccc23)NC(=O)[C@H](C)NC(=O)[C@H](C)NC(=O)CSC[C@H](C(=O)N2CCC(CC(=O)O)CC2)NC(=O)[C@H](Cc2ccccc2)N(C)C(=O)[C@H](CCC(=O)O)N(C)C1=O [Myostatin_99_v337] ({CH2CO}-AA[Trp(6-aza)]Y[NMeF]I[NPrGly][Phe(3-OCH2COOH)][Phe(4-COOH)]R[NMeF][Gly(decyl)][NMeE][NMeF][dC]-{Piperidinyl(4-CH2COOH)}; thioether N-15),–,–,–,–
0%,0%,100%,95%,CCCCCCCCCC[C@@H]1NC(=O)[C@H](Cc2ccccc2)N(C)C(=O)[C@H](CCCNC(=N)N)NC(=O)[C@H](Cc2ccc(C(=O)O)cc2)NC(=O)[C@H](Cc2cccc(OCC(=O)O)c2)NC(=O)CN(C)C(=O)[C@H]([C@@H](C)OC)NC(=O)[C@H](Cc2ccccc2)N(C)C(=O)[C@H](Cc2ccc(O)cc2)NC(=O)[C@H](Cc2c[nH]c3ccccc23)NC(=O)[C@H](C)NC(=O)[C@H](C)NC(=O)CSC[C@H](C(=O)N2CCC(CC(=O)O)CC2)NC(=O)[C@H](Cc2ccccc2)N(C)C(=O)[C@H](CCC(=O)O)N(C)C1=O [Myostatin_99_v340] ({CH2CO}-AAWY[NMeF]T(Me)[Sar][Phe(3-OCH2COOH)][Phe(4-COOH)]R[NMeF][Gly(decyl)][NMeE][NMeF][dC]-{Piperidinyl(4-CH2COOH)}; thioether N-15),–,–,–,–
0%,8%,100%,100%,CCCCCCCCCC[C@@H]1NC(=O)[C@H](Cc2ccccc2)N(C)C(=O)[C@H](CCCNC(=N)N)NC(=O)[C@H](Cc2ccc(C(=O)O)cc2)NC(=O)[C@H](Cc2cccc(OCC(=O)O)c2)NC(=O)[C@H]2CCCN2C(=O)[C@H]([C@@H](C)CC)NC(=O)[C@H](Cc2ccccc2)N(C)C(=O)[C@H](Cc2ccc(O)cc2)NC(=O)[C@H](Cc2c[nH]c3ccccc23)NC(=O)[C@H](C)NC(=O)[C@H](C)NC(=O)CSC[C@H](C(=O)N2CCC(CC(N)=O)CC2)NC(=O)[C@H](Cc2ccccc2)N(C)C(=O)[C@H](CCC(=O)O)N(C)C1=O [Myostatin_99_v347] ({CH2CO}-AAWY[NMeF]I[dP][Phe(3-OCH2COOH)][Phe(4-COOH)]R[NMeF][Gly(decyl)][NMeE][NMeF][dC]-X9; thioether N-15),–,–,–,–

# — EP4786487A1, “PEPTIDE” (Peptidream Inc, priority 2023, dated 2025)
